Results published in PubChem BioAssay (NCI).
Several values for one entry are separate records, joined by “and”; a condition that tells them apart may be missing. Equal entries are not always repeated.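 Here, GI50 denotes the concentration required for 50% inhibition of growth. TGI is the concentration that stops growth completely.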

Legend:
Experiment in all cases: growth of human tumour cells (NCI), 384-well format
PC-3 prostate = tested on: PC-3 prostate
SNB-19 CNS = tested on: SNB-19 CNS
U251 glioblastoma = tested on: U251 glioblastoma
UACC-257 melanoma = tested on: UACC-257 melanoma
HT29 colon = tested on: HT29 colon
BT-549 breast = tested on: BT-549 breast
SR leukemia = tested on: SR leukemia
SNB-75 CNS = tested on: SNB-75 CNS
ACHN renal = tested on: ACHN renal
A549 NSCLC = tested on: A549 NSCLC
LOX IMVI melanoma = tested on: LOX IMVI melanoma
HOP-62 NSCLC = tested on: HOP-62 NSCLC
TK-10 renal = tested on: TK-10 renal
CAKI-1 renal = tested on: CAKI-1 renal
NCI/ADR-RES ovarian = tested on: NCI/ADR-RES ovarian
SF-268 CNS = tested on: SF-268 CNS
MDA-MB-468 breast = tested on: MDA-MB-468 breast
NCI-H226 lung = tested on: NCI-H226 lung
HCC-2998 colon = tested on: HCC-2998 colon
K-562 leukemia = tested on: K-562 leukemia
T-47D breast = tested on: T-47D breast
SW-620 colon = tested on: SW-620 colon
HCT-116 colon = tested on: HCT-116 colon
MDA-MB-231 breast = tested on: MDA-MB-231 breast
NCI-H522 lung = tested on: NCI-H522 lung
MDA-MB-435 melanoma = tested on: MDA-MB-435 melanoma
NCI-H322M lung = tested on: NCI-H322M lung
SF-539 CNS = tested on: SF-539 CNS
MCF7 breast = tested on: MCF7 breast
HOP-92 NSCLC = tested on: HOP-92 NSCLC
NCI-H23 lung = tested on: NCI-H23 lung
A498 renal = tested on: A498 renal
EKVX NSCLC = tested on: EKVX NSCLC
SK-MEL-2 melanoma = tested on: SK-MEL-2 melanoma
OVCAR-3 ovarian = tested on: OVCAR-3 ovarian
OVCAR-5 ovarian = tested on: OVCAR-5 ovarian
UACC-62 melanoma = tested on: UACC-62 melanoma
HCT-15 colon = tested on: HCT-15 colon
M14 melanoma = tested on: M14 melanoma
MALME-3M melanoma = tested on: MALME-3M melanoma
COLO 205 colon = tested on: COLO 205 colon
NCI-H460 NSCLC = tested on: NCI-H460 NSCLC
MOLT-4 leukemia = tested on: MOLT-4 leukemia
CCRF-CEM leukemia = tested on: CCRF-CEM leukemia
HL-60(TB) leukemia = tested on: HL-60(TB) leukemia
OVCAR-8 ovarian = tested on: OVCAR-8 ovarian
OVCAR-4 ovarian = tested on: OVCAR-4 ovarian
UO-31 renal = tested on: UO-31 renal
SK-MEL-5 melanoma = tested on: SK-MEL-5 melanoma
IGROV1 ovarian = tested on: IGROV1 ovarian
KM12 colon = tested on: KM12 colon
SF-295 CNS = tested on: SF-295 CNS
SK-OV-3 ovarian = tested on: SK-OV-3 ovarian
DU-145 prostate = tested on: DU-145 prostate
SN12C renal = tested on: SN12C renal
HS 578T breast = tested on: HS 578T breast
RPMI-8226 leukemia = tested on: RPMI-8226 leukemia
SK-MEL-28 melanoma = tested on: SK-MEL-28 melanoma
RXF 393 renal = tested on: RXF 393 renal
786-0 renal = tested on: 786-0 renal

In the case of `Oc1cccc(-c2nc(N3CCOCC3)c3oc4ncccc4c3n2)c1`, the GI50 (PC-3 prostate) is reported as 40.8 nM and 39.3 nM, the TGI (PC-3 prostate) is reported as 1730 nM and 299 nM and the GI50 (SNB-19 CNS) is reported as 1260 nM and 1380 nM. For the same compound, the TGI (SNB-19 CNS) was > 100000 nM and 24300 nM, the GI50 (U251 glioblastoma) was 670 nM and 390 nM and the TGI (U251 glioblastoma) was > 100000 nM and 19600 nM. The GI50 (UACC-257 melanoma) was 535 nM and 350 nM, the TGI (UACC-257 melanoma) was 5390 nM and 3810 nM and the GI50 (HT29 colon) was 3280 nM and 3420 nM. For the same compound, the TGI (HT29 colon) was greater than 100000 nM, the GI50 (BT-549 breast) was 27.9 nM and 125 nM and the TGI (BT-549 breast) was 347 nM and 493 nM. The GI50 (SR leukemia) was 207 nM and 61.2 nM, the TGI (SR leukemia) was 890 nM and 205 nM and the GI50 (SNB-75 CNS) was 33.4 nM and 53.7 nM. For the same compound, the GI50 (ACHN renal) was 70.7 nM and 77.9 nM, the TGI (ACHN renal) was 2440 nM and 563 nM and the GI50 (A549 NSCLC) was 251 nM and 353 nM. The TGI (A549 NSCLC) was 1680 nM and 15400 nM, the GI50 (LOX IMVI melanoma) was 318 nM and 207 nM and the TGI (LOX IMVI melanoma) was 1570 nM and 1060 nM. For the same compound, the GI50 (HOP-62 NSCLC) was 429 nM and 231 nM, the TGI (HOP-62 NSCLC) was 3820 nM and 2810 nM and the GI50 (TK-10 renal) was 331 nM and 167 nM. The TGI (TK-10 renal) was 1920 nM and 695 nM, the GI50 (CAKI-1 renal) was 395 nM and 255 nM and the TGI (CAKI-1 renal) was 5220 nM and 12300 nM. The GI50 (NCI/ADR-RES ovarian) was 240 nM and 151 nM, the TGI (NCI/ADR-RES ovarian) was > 100000 nM and 18000 nM and the GI50 (SF-268 CNS) was 239 nM and 394 nM. For the same compound, the TGI (SF-268 CNS) was 10100 nM and 17900 nM, the GI50 (MDA-MB-468 breast) was 289 nM and 291 nM and the TGI (MDA-MB-468 breast) was 1140 nM and 1240 nM. For the same compound, the GI50 (NCI-H226 lung) was 3470 nM and 2290 nM, the TGI (NCI-H226 lung) was 22400 nM and 5680 nM and the GI50 (HCC-2998 colon) was 147 nM and 367 nM. The TGI (HCC-2998 colon) was 4250 nM and 8570 nM, the GI50 (K-562 leukemia) was 327 nM and the TGI (K-562 leukemia) was greater than 100000 nM. The GI50 (T-47D breast) was 150 nM and 215 nM, the GI50 (SW-620 colon) was 561 nM and the TGI (SW-620 colon) was greater than 100000 nM. The GI50 (HCT-116 colon) was 982 nM and 466 nM, the TGI (HCT-116 colon) was greater than 100000 nM and the GI50 (MDA-MB-231 breast) was 289 nM and 500 nM. For the same compound, the TGI (MDA-MB-231 breast) was 47600 nM and > 100000 nM, the GI50 (NCI-H522 lung) was 81.6 nM and 55.9 nM and the TGI (NCI-H522 lung) was 524 nM and 501 nM. For the same compound, the GI50 (MDA-MB-435 melanoma) was 161 nM and 162 nM, the TGI (MDA-MB-435 melanoma) was 823 nM and 767 nM and the GI50 (NCI-H322M lung) was 229 nM and 106 nM. The TGI (NCI-H322M lung) was 2030 nM and 642 nM, the GI50 (SF-539 CNS) was 114 nM and 143 nM and the TGI (SF-539 CNS) was 1590 nM and 11400 nM. For the same compound, the GI50 (MCF7 breast) was 208 nM and 99 nM, the TGI (MCF7 breast) was 23300 nM and 19500 nM and the GI50 (HOP-92 NSCLC) was 50.6 nM and 111 nM. For the same compound, the GI50 (NCI-H23 lung) was 306 nM and 324 nM, the TGI (NCI-H23 lung) was 16100 nM and 17700 nM and the GI50 (A498 renal) was 2050 nM and 598 nM. For the same compound, the TGI (A498 renal) was 4690 nM and 2870 nM, the GI50 (EKVX NSCLC) was 111 nM and 135 nM and the TGI (EKVX NSCLC) was 468 nM and 504 nM. For the same compound, the GI50 (SK-MEL-2 melanoma) was 808 nM, the TGI (SK-MEL-2 melanoma) was 4720 nM and the GI50 (OVCAR-3 ovarian) was 54 nM and 118 nM. The TGI (OVCAR-3 ovarian) was 398 nM and 408 nM, the GI50 (OVCAR-5 ovarian) was 3540 nM and 2560 nM and the GI50 (UACC-62 melanoma) was 305 nM and 400 nM. For the same compound, the TGI (UACC-62 melanoma) was 1460 nM and 2300 nM, the GI50 (HCT-15 colon) was 128 nM and 104 nM and the TGI (HCT-15 colon) was > 100000 nM and 38500 nM. For the same compound, the GI50 (M14 melanoma) was 260 nM and 155 nM, the GI50 (MALME-3M melanoma) was 40.3 nM and 83.5 nM and the GI50 (COLO 205 colon) was 4480 nM and 5550 nM. For the same compound, the TGI (COLO 205 colon) was 33600 nM and 27200 nM, the GI50 (NCI-H460 NSCLC) was 155 nM and 44.1 nM and the GI50 (MOLT-4 leukemia) was 23 nM and 39.1 nM. For the same compound, the TGI (MOLT-4 leukemia) was 230 nM and 195 nM, the GI50 (CCRF-CEM leukemia) was 202 nM and the TGI (CCRF-CEM leukemia) was 2730 nM. For the same compound, the GI50 (HL-60(TB) leukemia) was 62.2 nM and 20.5 nM, the TGI (HL-60(TB) leukemia) was 978 nM and 217 nM and the GI50 (OVCAR-8 ovarian) was 197 nM. For the same compound, the TGI (OVCAR-8 ovarian) was greater than 100000 nM, the GI50 (OVCAR-4 ovarian) was 350 nM and 87.4 nM and the TGI (OVCAR-4 ovarian) was 3690 nM and 613 nM. For the same compound, the GI50 (UO-31 renal) was 60.9 nM, the TGI (UO-31 renal) was 295 nM and the GI50 (SK-MEL-5 melanoma) was 103 nM and 77.6 nM. For the same compound, the TGI (SK-MEL-5 melanoma) was 498 nM and 279 nM, the GI50 (IGROV1 ovarian) was 115 nM and 155 nM and the TGI (IGROV1 ovarian) was 393 nM and 380 nM. The GI50 (KM12 colon) was 312 nM and 305 nM, the TGI (KM12 colon) was greater than 100000 nM and the GI50 (SF-295 CNS) was 1290 nM and 2370 nM. The TGI (SF-295 CNS) was 4020 nM and 8530 nM, the GI50 (SK-OV-3 ovarian) was 81.1 nM and 120 nM and the GI50 (DU-145 prostate) was 154 nM and 112 nM. The GI50 (SN12C renal) was 121 nM and 43.3 nM, the GI50 (HS 578T breast) was 61.9 nM and 86.1 nM and the TGI (HS 578T breast) was 288 nM and 617 nM. For the same compound, the GI50 (RPMI-8226 leukemia) was 116 nM and 44.9 nM, the TGI (RPMI-8226 leukemia) was 419 nM and 184 nM and the GI50 (SK-MEL-28 melanoma) was 96.3 nM and 123 nM. For the same compound, the GI50 (RXF 393 renal) was 95.7 nM and 207 nM, the TGI (RXF 393 renal) was 337 nM and 2860 nM and the GI50 ([…]-0 renal) was 297 nM. For the same compound, the TGI (786-0 renal) was 1480 nM.
